Experiment [1] deals with Staphylococcus aureus. The experiment in a line: Antibacterial activity against methicillin-resistant Staphylococcus aureus ATCC 43300 after 24 hrs by broth dilution assay. Type of experiment: functional. The note with it: ATCC 43300, 24 h.
The test system of experiment [2] is Staphylococcus aureus. The experiment in a line: Antibacterial activity against Staphylococcus aureus ATCC 25923 after 24 hrs by broth dilution assay. The experiment is classed as functional. The note with it: ATCC 25923, 24 h.

The structures appear in SMILES notation. Values after ≈ are worked out from the molar mass of the structure shown.

One may read the MIC as the lowest concentration that inhibits growth of the organism. Read a high MIC as a need for much substance. `CC1(C)S[C@@H]2[C@H](NC(=O)Cc3ccccc3)C(=O)N2[C@H]1C(=O)O` [PENICILLIN G]: the values for the MIC in the experiment with Staphylococcus aureus [1] and in the experiment on Staphylococcus aureus [2] were 16 mg/L (≈ 47.8 µM) and 0.012 mg/L (≈ 0.0359 µM), respectively.

(Values after ChEMBL document CHEMBL1139929, “Penicillin-bound polyacrylate nanoparticles: restoring the activity of beta-lactam antibiotics against MRSA” (2007).)
